Test system: MOLM-13 (KMT2A-r) cell line
Assay: In vitro proliferation (spheroid confluence, Incucyte), Compound 51 with venetoclax and optionally azacitidine, MOLM-13
Assay type: cell-based, human
Description: 3b) In Vitro Proliferation—Menin-MLL Inhibitor in Combination with Venetoclax and Optionally, Azacitidine
The effect of Compound 51, alone or in combination with venetoclax, or in combination with venetoclax+azacitidine, was determined in proliferation assays using the MOLM-13 (KMT2A-r) cell line.
MOLM-13 cells were seeded in 96-well, round-bottom, ultra-low attachment plates. The following dilution series were used: Compound 51 at an initial concentration of 1 μM, followed by a 5- or 6-point, 4-fold serial dilution series; azacitidine at an initial concentration of 25 μM, followed by a 6-point, 5-fold serial dilution series; and venetoclax at an initial concentration of 3 μM, followed by a 5- or 6-point, 5-fold serial dilution series. In the combination treatments that included venetoclax, venetoclax was added to the cells 4 days after treatment with Compound 51 and/or azacitidine was initiated. The triplet combination of Compound 51, in a checkerboard titration design with azacitidine+venetoclax, was tested at the same concentrations.
The optimal cell seeding number (500 cells/well) was chosen based on growth curves to ensure linear growth throughout the entire experiment. The DMSO content was normalized to 0.3% and cells were incubated for 8 days at 37° C., 5% CO2. Spheroid-like growth was monitored in real-time by non-invasive live-cell imaging using the 4× objective of the Incucyte ZOOM live cell imaging system (Essen BioScience), and images were acquired on Day 8. The percent confluence, as a measure of spheroid size, was determined using an integrated analysis tool that is part of the Incucyte ZOOM software “IncuCyte ZOOM 2016B” (Essen BioScience). The percent confluence from the DMSO well was used as baseline response. Each experiment contained 4 replicates of each condition and the experiment was performed 3 times. Potential combination effects were analyzed for synergy using an R-based Biochemically Intuitive Generalized Loewe (BIGL) model implemented with a highest single agent (HSA) null model (Van der Borght 2017).

For `CC(=O)N1CCC(CN2CC[C@@H](Cc3cn(-c4ccc(F)cc4C(=O)N(C)C(C)C)c4cncc(C)c34)C2)CC1` [Compound 51], the “Effect size (BIGL, HSA null model)” value (doublet: Compound 51 0.0002 μM, Venetoclax 0.0003 μM) was 0.02, the “Effect size (BIGL, HSA null model)” value (doublet: Compound 51 0.0002 μM, Venetoclax 0.0016 μM) was 0.01 and the “Effect size (BIGL, HSA null model)” value (doublet: Compound 51 0.0002 μM, Venetoclax 0.008 μM) was 0.05. For the same compound, the “Effect size (BIGL, HSA null model)” value (doublet: Compound 51 0.0002 μM, Venetoclax 0.04 μM) was 0.02, the “Effect size (BIGL, HSA null model)” value (doublet: Compound 51 0.0002 μM, Venetoclax 0.2 μM) was 0.08 and the “Effect size (BIGL, HSA null model)” value (doublet: Compound 51 0.0002 μM, Venetoclax 1 μM) was −0.05. The “Effect size (BIGL, HSA null model)” value (doublet: Compound 51 0.001 μM, Venetoclax 0.0003 μM) was 0.01, the “Effect size (BIGL, HSA null model)” value (doublet: Compound 51 0.001 μM, Venetoclax 0.0016 μM) was 0.03 and the “Effect size (BIGL, HSA null model)” value (doublet: Compound 51 0.001 μM, Venetoclax 0.008 μM) was 0.02. For the same compound, the “Effect size (BIGL, HSA null model)” value (doublet: Compound 51 0.001 μM, Venetoclax 0.04 μM) was 0.00, the “Effect size (BIGL, HSA null model)” value (doublet: Compound 51 0.001 μM, Venetoclax 0.2 μM) was 0.05 and the “Effect size (BIGL, HSA null model)” value (doublet: Compound 51 0.001 μM, Venetoclax 1 μM) was −0.05. The “Effect size (BIGL, HSA null model)” value (doublet: Compound 51 0.004 μM, Venetoclax 0.0003 μM) was 0.05, the “Effect size (BIGL, HSA null model)” value (doublet: Compound 51 0.004 μM, Venetoclax 0.0016 μM) was 0.04 and the “Effect size (BIGL, HSA null model)” value (doublet: Compound 51 0.004 μM, Venetoclax 0.008 μM) was 0.04. The “Effect size (BIGL, HSA null model)” value (doublet: Compound 51 0.004 μM, Venetoclax 0.04 μM) was −0.03, the “Effect size (BIGL, HSA null model)” value (doublet: Compound 51 0.004 μM, Venetoclax 0.2 μM) was 0.40 and the “Effect size (BIGL, HSA null model)” value (doublet: Compound 51 0.004 μM, Venetoclax 1 μM) was −0.09. For the same compound, the “Effect size (BIGL, HSA null model)” value (doublet: Compound 51 0.0156 μM, Venetoclax 0.0003 μM) was −0.04, the “Effect size (BIGL, HSA null model)” value (doublet: Compound 51 0.0156 μM, Venetoclax 0.008 μM) was −0.27 and the “Effect size (BIGL, HSA null model)” value (doublet: Compound 51 0.0156 μM, Venetoclax 0.04 μM) was −0.42. The “Effect size (BIGL, HSA null model)” value (doublet: Compound 51 0.0156 μM, Venetoclax 0.2 μM) was −0.24, the “Effect size (BIGL, HSA null model)” value (doublet: Compound 51 0.0156 μM, Venetoclax 1 μM) was −0.18 and the “Effect size (BIGL, HSA null model)” value (doublet: Compound 51 0.0625 μM, Venetoclax 0.0003 μM) was −0.01. For the same compound, the “Effect size (BIGL, HSA null model)” value (doublet: Compound 51 0.0625 μM, Venetoclax 0.0016 μM) was −0.04, the “Effect size (BIGL, HSA null model)” value (doublet: Compound 51 0.0625 μM, Venetoclax 0.008 μM) was −0.12 and the “Effect size (BIGL, HSA null model)” value (doublet: Compound 51 0.0625 μM, Venetoclax 0.04 μM) was −0.15. The “Effect size (BIGL, HSA null model)” value (doublet: Compound 51 0.0625 μM, Venetoclax 0.2 μM) was −0.15, the “Effect size (BIGL, HSA null model)” value (doublet: Compound 51 0.0625 μM, Venetoclax 1 μM) was −0.16 and the “Effect size (BIGL, HSA null model)” value (doublet: Compound 51 0.25 μM, Venetoclax 0.0003 μM) was 0.00. For the same compound, the “Effect size (BIGL, HSA null model)” value (doublet: Compound 51 0.25 μM, Venetoclax 0.0016 μM) was 0.11, the “Effect size (BIGL, HSA null model)” value (doublet: Compound 51 0.25 μM, Venetoclax 0.008 μM) was −0.05 and the “Effect size (BIGL, HSA null model)” value (doublet: Compound 51 0.25 μM, Venetoclax 0.04 μM) was −0.07. The “Effect size (BIGL, HSA null model)” value (doublet: Compound 51 0.25 μM, Venetoclax 0.2 μM) was −0.13, the “Effect size (BIGL, HSA null model)” value (doublet: Compound 51 0.25 μM, Venetoclax 1 μM) was −0.07 and the “Effect size (BIGL, HSA null model)” value (doublet: Compound 51 1 μM, Venetoclax 0.0003 μM) was −0.02. The “Effect size (BIGL, HSA null model)” value (doublet: Compound 51 1 μM, Venetoclax 0.0016 μM) was −0.03, the “Effect size (BIGL, HSA null model)” value (doublet: Compound 51 1 μM, Venetoclax 0.008 μM) was −0.07 and the “Effect size (BIGL, HSA null model)” value (doublet: Compound 51 1 μM, Venetoclax 0.04 μM) was −0.08. For the same compound, the “Effect size (BIGL, HSA null model)” value (doublet: Compound 51 1 μM, Venetoclax 0.2 μM) was −0.07, the “Effect size (BIGL, HSA null model)” value (doublet: Compound 51 1 μM, Venetoclax 1 μM) was −0.06 and the “Effect size (BIGL, HSA null model)” value (triplet: Compound 51 0.001 μM, Venetoclax 0.0001 μM, Azacitidine 0.008 μM) was 0.03. The “Effect size (BIGL, HSA null model)” value (triplet: Compound 51 0.001 μM, Venetoclax 0.0002 μM, Azacitidine 0.0016 μM) was 0.03, the “Effect size (BIGL, HSA null model)” value (triplet: Compound 51 0.001 μM, Venetoclax 0.005 μM, Azacitidine 0.04 μM) was 0.05 and the “Effect size (BIGL, HSA null model)” value (triplet: Compound 51 0.001 μM, Venetoclax 0.024 μM, Azacitidine 0.2 μM) was −0.02. The “Effect size (BIGL, HSA null model)” value (triplet: Compound 51 0.001 μM, Venetoclax 0.12 μM, Azacitidine 1 μM) was 0.01, the “Effect size (BIGL, HSA null model)” value (triplet: Compound 51 0.001 μM, Venetoclax 0.6 μM, Azacitidine 5 μM) was −0.03 and the “Effect size (BIGL, HSA null model)” value (triplet: Compound 51 0.001 μM, Venetoclax 3 μM, Azacitidine 25 μM) was 0.01. For the same compound, the “Effect size (BIGL, HSA null model)” value (triplet: Compound 51 0.004 μM, Venetoclax 0.0001 μM, Azacitidine 0.008 μM) was 0.03, the “Effect size (BIGL, HSA null model)” value (triplet: Compound 51 0.004 μM, Venetoclax 0.0002 μM, Azacitidine 0.0016 μM) was 0.04 and the “Effect size (BIGL, HSA null model)” value (triplet: Compound 51 0.004 μM, Venetoclax 0.005 μM, Azacitidine 0.04 μM) was 0.04. For the same compound, the “Effect size (BIGL, HSA null model)” value (triplet: Compound 51 0.004 μM, Venetoclax 0.024 μM, Azacitidine 0.2 μM) was −0.05, the “Effect size (BIGL, HSA null model)” value (triplet: Compound 51 0.004 μM, Venetoclax 0.12 μM, Azacitidine 1 μM) was −0.08 and the “Effect size (BIGL, HSA null model)” value (triplet: Compound 51 0.004 μM, Venetoclax 0.6 μM, Azacitidine 5 μM) was −0.03. The “Effect size (BIGL, HSA null model)” value (triplet: Compound 51 0.004 μM, Venetoclax 3 μM, Azacitidine 25 μM) was 0.01, the “Effect size (BIGL, HSA null model)” value (triplet: Compound 51 0.0625 μM, Venetoclax 0.0002 μM, Azacitidine 0.0016 μM) was 0.02 and the “Effect size (BIGL, HSA null model)” value (triplet: Compound 51 0.25 μM, Venetoclax 0.0001 μM, Azacitidine 0.008 μM) was −0.00. The “Effect size (BIGL, HSA null model)” value (triplet: Compound 51 0.25 μM, Venetoclax 0.0002 μM, Azacitidine 0.0016 μM) was 0.00, the “Effect size (BIGL, HSA null model)” value (triplet: Compound 51 0.25 μM, Venetoclax 0.005 μM, Azacitidine 0.04 μM) was 0.11 and the “Effect size (BIGL, HSA null model)” value (triplet: Compound 51 0.25 μM, Venetoclax 0.024 μM, Azacitidine 0.2 μM) was −0.07. The “Effect size (BIGL, HSA null model)” value (triplet: Compound 51 0.25 μM, Venetoclax 0.12 μM, Azacitidine 1 μM) was −0.14, the “Effect size (BIGL, HSA null model)” value (triplet: Compound 51 0.25 μM, Venetoclax 0.6 μM, Azacitidine 5 μM) was −0.06 and the “Effect size (BIGL, HSA null model)” value (triplet: Compound 51 0.25 μM, Venetoclax 3 μM, Azacitidine 25 μM) was 0.01. The “Effect size (BIGL, HSA null model)” value (triplet: Compound 51 1 μM, Venetoclax 0.0001 μM, Azacitidine 0.008 μM) was −0.02, the “Effect size (BIGL, HSA null model)” value (triplet: Compound 51 1 μM, Venetoclax 0.0002 μM, Azacitidine 0.0016 μM) was −0.01 and the “Effect size (BIGL, HSA null model)” value (triplet: Compound 51 1 μM, Venetoclax 0.005 μM, Azacitidine 0.04 μM) was −0.04. The “Effect size (BIGL, HSA null model)” value (triplet: Compound 51 1 μM, Venetoclax 0.024 μM, Azacitidine 0.2 μM) was −0.08, the “Effect size (BIGL, HSA null model)” value (triplet: Compound 51 1 μM, Venetoclax 0.12 μM, Azacitidine 1 μM) was −0.14 and the “Effect size (BIGL, HSA null model)” value (triplet: Compound 51 1 μM, Venetoclax 0.6 μM, Azacitidine 5 μM) was −0.05. For the same compound, the “Effect size (BIGL, HSA null model)” value (triplet: Compound 51 1 μM, Venetoclax 3 μM, Azacitidine 25 μM) was 0.02.
